According to patent US10533989B2, “Metabolomics in pneumonia and sepsis” (University of Pittsburgh—Of the Commonwealth System of …, priority 2012, dated 2020):

Test system: differentiated Thp1 monocytes
Experiment: In-vitro monocyte stimulation, TNFα and IL1β in supernatant by ELISA
Format: cell-based, human
Conditions: for IL-1β in supernatant vs PBS control / TNFα in supernatant vs PBS control: differentiated Thp1 monocytes, 16 h, beta-pseudouridine 10 mM, allantoin 0.3 mg/mL
Source text: Among significant metabolites (p<0.05, q<0.1) in our agnostic approach, five nucleic acid metabolites (e.g., beta-pseudouridine, 1-methyladenosine, N-2-methylguanosine, N-6-carbamoylthreonyladenosine, and allantoin) were identified for in vitro monocyte stimulation experiments. See, Table 2. These nucleic acid metabolites may function as damage-associated molecular patterns, and stimulate TNFα and IL1β similar to HMGB-1 and LPS. Bleiblo et al. (2012) “The role of immunostimulatory nucleic acids in septic shock” Int J Clin Exp Med 5:1-23
THP-1 cells (American Type Cell Collection, Manassas, Va., USA) were cultured in suspension in RPMI1640 media (Gibco, Grand Island, N.Y., USA) supplemented with 10% fetal bovine serum, 2 mM L-glutamine, 100 U/mL penicillin, 100 […], and 100 µM sodium pyruvate (all from Gibco). To differentiate the monocytes, 0.33×10^6 cells/mL were suspended in media and treated with 5 ng/mL PMA and then plated. After 48 h, adhered cells were washed three times in PBS and then treated for 16 h with compounds of interest at concentrations described. All compounds were dissolved in endotoxin-free water.
Endotoxin was measured at 61.5-153.8 pg per 250 µL treatment of 10 mM dose beta-pseudouridine, compared to 4,000 pg/mL in LPS-positive control. After 16 h media was collected and TNFα and IL1β levels determined by ELISA (R&D Systems, Minneapolis, Minn., USA) according to manufacturer's instructions. Experiments were repeated after treatment with viral inhibitory peptide of TLR4 (VIPER) and polymyxin B (PMB).

Cytokine (TNFα) levels in the presence of TLR4-receptor inhibitor VIPER (beta-pseudouridine 10 mM with VIPER (TLR4-antagonist), 16 h (FIG. 5D))	Compound	IL-1β in supernatant vs PBS control	Cytokine (TNFα) stimulation, concentration dependence (beta-pseudouridine 0.0001-10 mM, 16 h (FIG. 5C))	Cytokine (TNFα) levels in the presence of polymyxin B (beta-pseudouridine 10 mM with polymyxin B (PMB; 10 μM), 16 h (FIG. 5D))	TNFα in supernatant vs PBS control	IL-1β in supernatant vs PBS control (listed as beta-pseudouridine)	TNFα in supernatant vs PBS control (listed as beta-pseudouridine)
–	NC(=O)NC1NC(=O)NC1=O (centres unmarked) [allantoin]	significantly increased	–	–	–	–	–
significantly abrogated	O=c1[nH]cc([C@@H]2O[C@H](CO)[C@@H](O)[C@H]2O)c(=O)[nH]1 [pseudouridine]	increased	concentration-dependent	remained significantly elevated	increased	stimulated significant release	stimulated significant release
